According to ChEMBL document CHEMBL1141178, “Identification of 4-substituted 1,2,3-triazoles as novel oxazolidinone antibacterial agents with reduced activity against monoamine oxidase A” (J Med Chem, 2005):
≈ marks a conversion by molar mass, not a printed value.

Legend:
[1] = target: T1, Amine oxidase [flavin-containing] A (Homo sapiens, UniProt P21397); experiment: Binding affinity for human liver monoamine oxidase A
T1 sequence (P21397 whole entry): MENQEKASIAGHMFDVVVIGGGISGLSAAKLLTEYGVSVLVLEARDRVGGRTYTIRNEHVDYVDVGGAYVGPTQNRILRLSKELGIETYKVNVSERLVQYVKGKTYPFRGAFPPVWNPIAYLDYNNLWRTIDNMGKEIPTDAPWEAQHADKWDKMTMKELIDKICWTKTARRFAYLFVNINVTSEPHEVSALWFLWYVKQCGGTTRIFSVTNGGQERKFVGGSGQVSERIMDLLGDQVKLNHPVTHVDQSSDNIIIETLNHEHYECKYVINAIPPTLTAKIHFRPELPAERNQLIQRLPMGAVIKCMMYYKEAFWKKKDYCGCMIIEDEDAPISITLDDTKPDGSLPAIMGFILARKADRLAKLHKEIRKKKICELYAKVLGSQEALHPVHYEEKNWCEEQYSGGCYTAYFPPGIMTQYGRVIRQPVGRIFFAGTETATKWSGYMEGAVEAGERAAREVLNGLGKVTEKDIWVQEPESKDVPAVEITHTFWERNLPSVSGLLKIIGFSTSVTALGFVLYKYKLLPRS

Streptococcus pneumoniae = experiment: Minimum inhibitory concentration against penicillin susceptible Streptococcus pneumoniae AP671401; type: functional
Staphylococcus aureus = experiment: Minimum inhibitory concentration against methicillin susceptible Staphylococcus aureus AP601055; type: functional
[2] = Minimum inhibitory concentration against Haemophilus influenzae ATCC 51907; type: functional

| SMILES | Ki [1] [µM] | MIC (Streptococcus pneumoniae) [µg/mL] | MIC (Staphylococcus aureus) [µg/mL] | MIC [2] [µg/mL] |
| --- | --- | --- | --- | --- |
| O=C1O[C@@H](Cn2cc(/C=C/Br)nn2)CN1c1ccc(C2=CCS(=O)(=O)CC2)c(F)c1 | > 200 | 2 (≈ 4.02 µM) | 8 (≈ 16.1 µM) | 8 (≈ 16.1 µM) |
| CC(=O)NC[C@H]1CN(c2ccc(C3=CCS(=O)(=O)CC3)c(F)c2)C(=O)O1 | 5.9 | 0.25 (≈ 0.654 µM) | 1 (≈ 2.61 µM) | 1 (≈ 2.61 µM) |
| O=C1O[C@@H](Cn2cc(COP(=O)(Oc3ccccc3)Oc3ccccc3)nn2)CN1c1ccc(C2=CCS(=O)(=O)CC2)c(F)c1 | > 100 | 4 (≈ 6.11 µM) | 32 (≈ 48.9 µM) | 64 (≈ 97.8 µM) |
| O=C1O[C@@H](Cn2cc(C=C(Br)Br)nn2)CN1c1ccc(C2=CCS(=O)(=O)CC2)c(F)c1 | > 100 | 4 (≈ 6.94 µM) | > 64 | > 64 |
| CC(C)(C)OC(=O)c1cn(C[C@H]2CN(c3ccc(C4=CCS(=O)(=O)CC4)c(F)c3)C(=O)O2)nn1 | 3.5 | > 64 | > 64 | > 64 |
| O=C1O[C@@H](Cn2nncc2F)CN1c1ccc(C2=CCS(=O)(=O)CC2)c(F)c1 | 1.6 | 8 (≈ 19.5 µM) | 32 (≈ 78 µM) | 64 (≈ 156 µM) |
| Cc1cnnn1C[C@H]1CN(c2ccc(C3=CCS(=O)(=O)CC3)c(F)c2)C(=O)O1 | 4.5 | 64 (≈ 157 µM) | > 64 | > 64 |
| CCc1cn(C[C@H]2CN(c3ccc(C4=CCS(=O)(=O)CC4)c(F)c3)C(=O)O2)nn1 | > 200 | 2 (≈ 4.76 µM) | 4 (≈ 9.51 µM) | 8 (≈ 19 µM) |
| O=C1O[C@@H](Cn2cc(F)nn2)CN1c1ccc(C2=CCS(=O)(=O)CC2)c(F)c1 | 0.5 | 0.25 (≈ 0.609 µM) | 1 (≈ 2.44 µM) | 2 (≈ 4.87 µM) |
| O=Cc1cn(C[C@H]2CN(c3ccc(C4=CCS(=O)(=O)CC4)c(F)c3)C(=O)O2)nn1 | 3.2 | 2 (≈ 4.76 µM) | 16 (≈ 38.1 µM) | 16 (≈ 38.1 µM) |
| N#CCc1cn(C[C@H]2CN(c3ccc(C4=CCS(=O)(=O)CC4)c(F)c3)C(=O)O2)nn1 | > 200 | 1 (≈ 2.32 µM) | 16 (≈ 37.1 µM) | 2 (≈ 4.64 µM) |
| O=C1O[C@@H](Cn2cc(CO)nn2)CN1c1ccc(C2=CCS(=O)(=O)CC2)c(F)c1 | 47 | 2 (≈ 4.73 µM) | 32 (≈ 75.8 µM) | 4 (≈ 9.47 µM) |
| C[Si](C)(C)C#Cc1cn(C[C@H]2CN(c3ccc(C4=CCS(=O)(=O)CC4)c(F)c3)C(=O)O2)nn1 | > 200 | 1 (≈ 2.05 µM) | > 64 | > 64 |
| Cc1cn(C[C@H]2CN(c3ccc(C4=CCS(=O)(=O)CC4)c(F)c3)C(=O)O2)nn1 | 25 | 0.5 (≈ 1.23 µM) | 1 (≈ 2.46 µM) | 2 (≈ 4.92 µM) |
| C#Cc1cn(C[C@H]2CN(c3ccc(C4=CCS(=O)(=O)CC4)c(F)c3)C(=O)O2)nn1 | > 200 | 0.5 (≈ 1.2 µM) | 2 (≈ 4.8 µM) | 2 (≈ 4.8 µM) |
| O=C1O[C@@H](Cn2cc(Cl)nn2)CN1c1ccc(C2=CCS(=O)(=O)CC2)c(F)c1 | 3 | 0.25 (≈ 0.586 µM) | 1 (≈ 2.34 µM) | 1 (≈ 2.34 µM) |
| CC(C)c1cn(C[C@H]2CN(c3ccc(C4=CCS(=O)(=O)CC4)c(F)c3)C(=O)O2)nn1 | 102 | 4 (≈ 9.21 µM) | 8 (≈ 18.4 µM) | 32 (≈ 73.6 µM) |
| O=C1O[C@@H](Cn2cc(Br)nn2)CN1c1ccc(C2=CCS(=O)(=O)CC2)c(F)c1 | 16 | 0.5 (≈ 1.06 µM) | 2 (≈ 4.24 µM) | 2 (≈ 4.24 µM) |
| O=C1O[C@@H](Cn2ccnn2)CN1c1ccc(C2=CCS(=O)(=O)CC2)c(F)c1 | 3.4 | 0.5 (≈ 1.27 µM) | 1 (≈ 2.55 µM) | 2 (≈ 5.1 µM) |
